Laboratory results taken from patent publication US9493434B2, “Substituted indenes as medicaments” (LABORATORIOS DEL DR. ESTEVE S.A., priority 2012, dated 2016).
Where a name gives a salt, the structure may show the parent alone.

target: T1, σ1-receptor (Cavia porcellus, UniProt Q60492); test: σ1-receptor binding assay, [3H]-(+)-pentazocine, guinea pig brain membranes; settings: radioligand [3H]-(+)-pentazocine 5.0 nM, 150 min at 37° C., nonspecific binding with 1 μM haloperidol
T1 construct: Guinea pig brains were homogenized in 10 vols; (w/v) of Tris-HCl 50 mM 0.32 M sucrose, pH 7.4; from tissue; host or cells: guinea pig brain membranes
Procedure: Brain membrane preparation and binding assays for the σ1-receptor were performed as described (DeHaven-Hudkins, D. L., L. C. Fleissner, and F. Y. Ford-Rice, 1992, Characterization of the binding of [^3H](+)pentazocine to […] recognition sites in guinea pig brain, Eur. J. Pharmacol. 227, 371-378) with some modifications. Guinea pig brains were homogenized in 10 vols. (w/v) of Tris-HCl 50 mM 0.32 M sucrose, pH 7.4, with a Kinematica Polytron PT 3000 at 15000 r.p.m. for 30 s. The homogenate was centrifuged at 1000 g for 10 min at 4° C. and the supernatants collected and centrifuged again at 48000 g for 15 min at 4° C. The pellet was resuspended in 10 volumes of Tris-HCl buffer (50 mM, pH 7.4), incubated at 37° C. for 30 min, and centrifuged at 48000 g for 20 min at 4° C. Following this, the pellet was re-suspended in fresh Tris-HCl buffer (50 mM, pH 7.4) and stored on ice until use.
The radioligand used was [^3H]-(+)-pentazocine at 5.0 nM and the final volume was 200 μl. The incubation was initiated with the addition of 100 μl of membrane at a final tissue concentration of approximately 5 mg tissue net weight/mL and the incubation time was 150 m. at 37° C. After incubation, the membranes were collected onto pretreated glass fiber filterplate (MultiScreen-FC, Millipore), with polyethylenimine 0.1%. The filters were washed two times with 200 μl of washing buffer (50 mM Tris CI, pH=7.4) and then 25 μl of Ecoscint H liquid scintillation cocktail were added. Microplates were allowed to set for several hours and then quantified by liquid scintillation spectrophotometry (1450 Microbeta, Wallac). Nonspecific binding was determined with 1 μM haloperidol.

T1 sequence (Q60492 whole entry): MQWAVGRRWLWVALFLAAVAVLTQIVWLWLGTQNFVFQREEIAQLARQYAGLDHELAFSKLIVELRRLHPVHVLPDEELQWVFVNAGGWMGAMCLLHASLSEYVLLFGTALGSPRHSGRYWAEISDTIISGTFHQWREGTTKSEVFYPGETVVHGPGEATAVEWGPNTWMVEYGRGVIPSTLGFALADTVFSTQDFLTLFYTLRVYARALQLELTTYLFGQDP

Row | Compound | Ki [nM]
1 | Fc1ccc(-c2cccc3c2CC=C3CCN2CCCCC2)cc1 [Compound 15, 1-(2-(7-(4-fluorophenyl)-1H-inden-3-yl)ethyl)piperidine maleate] | 8
2 | C1=C(CCN2CCOCC2)c2cccc(-c3ccccc3)c2C1 [Compound 1, 4-(2-(7-phenyl-1H-inden-3-yl)ethyl)morpholine maleate] | 3
3 | CN1CCN(CCC2=CCc3c2cccc3-n2ccnn2)CC1 [Compound 27, 1-(2-(7-(1H-1,2,3-triazol-1-yl)-1H-inden-3-yl)ethyl)-4-methylpiperazine maleate] | 185
4 | C1=C(CCN2CCCCCC2)c2cccc(-c3ccccc3)c2C1 [Compound 9, 1-(2-(7-phenyl-1H-inden-3-yl)ethyl)azepane maleate] | 7
5 | CN1CCN(CCC2=CCc3c2cccc3-c2ccc(F)nc2)CC1 [Compound 37, 1-(2-(7-(6-fluoropyridin-3-yl)-1H-inden-3-yl)ethyl)-4-methylpiperazine maleate] | 34
6 | COc1ccc(-c2cccc3c2CC=C3CCN2CCN(C)CC2)cn1 [Compound 36, 1-(2-(7-(6-methoxypyridin-3-yl)-1H-inden-3-yl)ethyl)-4-methylpiperazine maleate] | 37
7 | C1=C(CCN2CCOCC2)c2cccc(-c3cccnc3)c2C1 [Compound 34, 4-(2-(7-(pyridin-3-yl)-1H-inden-3-yl)ethyl)morpholine maleate] | 82
8 | CN1CCN(CCC2=CCc3c2cccc3-c2cccnc2)CC1 [Compound 35, 1-methyl-4-(2-(7-(pyridin-3-yl)-1H-inden-3-yl)ethyl)piperazine maleate] | 61
9 | Fc1cccc(-c2cccc3c2CC=C3CCN2CCOCC2)c1 [Compound 18, 4-(2-(7-(3-fluorophenyl)-1H-inden-3-yl)ethyl)morpholine maleate] | 4
10 | Fc1ccc(-c2cccc3c2CC=C3CCN2CCN(c3ccccc3)CC2)cc1 [Compound 14, 1-(2-(7-(4-fluorophenyl)-1H-inden-3-yl)ethyl)-4-phenylpiperazine maleate] | 24
11 | COc1ccc(-c2cccc3c2CC=C3CCN2CCOCC2)cn1 [Compound 39, 4-(2-(7-(6-methoxypyridin-3-yl)-1H-inden-3-yl)ethyl)morpholine maleate] | 180
12 | Cc1noc(C)c1-c1cccc2c1CC=C2CCN1CCN(C)CC1 [Compound 28, 3,5-dimethyl-4-(3-(2-(4-methylpiperazin-1-yl)ethyl)-1H-inden-7-yl)isoxazole maleate] | 36
13 | C1=C(CCN2CCOCC2)c2cccc(-c3ccsc3)c2C1 [Compound 25, 4-(2-(7-(thiophen-3-yl)-1H-inden-3-yl)ethyl)morpholine maleate] | 6
14 | C1=C(CCN2CCC(c3ccccc3)CC2)c2cccc(-c3ccccc3)c2C1 [Compound 10, 4-phenyl-1-(2-(7-phenyl-1H-inden-3-yl)ethyl)piperidine maleate] | 13
15 | CC1=C(CCN2CCN(C)CC2)c2cccc(-c3ccccc3)c2C1 [Compound 12, 1-methyl-4-(2-(2-methyl-7-phenyl-1H-inden-3-yl)ethyl)piperazine maleate] | 51
16 | CN1CCN(CCC2=CCc3c2cccc3-c2cccc(F)c2)CC1 [Compound 17, 1-(2-(7-(3-fluorophenyl)-1H-inden-3-yl)ethyl)-4-methylpiperazine maleate] | 14
17 | Clc1cccc(N2CCN(CCC3=CCc4c3cccc4-c3ccccc3)CC2)c1 [Compound 7, 1-(3-chlorophenyl)-4-(2-(7-phenyl-1H-inden-3-yl)ethyl)piperazine maleate] | 63
18 | COc1ccc(-c2cccc3c2CC=C3CCN2CCOCC2)cc1 [Compound 21, 4-(2-(7-(4-methoxyphenyl)-1H-inden-3-yl)ethyl)morpholine maleate] | 53
19 | CN1CCN(CCC2=CCc3cc(-c4ccncc4)ccc32)CC1 [Compound 40, 1-methyl-4-(2-(6-pyridin-4-yl)-1H-inden-3-yl)ethyl)piperazine maleate] | 143

Row | Compound | Ki [nM]
20 | CN1CCN(CCC2=CCc3c2cccc3-c2ccc(F)cc2)CC1 [Compound 16, 1-(2-(7-(4-fluorophenyl)-1H-inden-3-yl)ethyl)-4-methylpiperazine maleate] | 12
21 | CC1=C(CCN2CCOCC2)c2cccc(-c3ccccc3)c2C1 [Compound 11, 4-(2-(2-methyl-7-phenyl-1H-inden-3-yl)ethyl)morpholine maleate] | 28
22 | C1=C(CCN2CCN(c3ccccc3)CC2)c2cccc(-c3ccccc3)c2C1 [Compound 6, 1-phenyl-4-(2-(7-phenyl-1H-inden-3-yl)ethyl)piperazine maleate] | 31
23 | CN1CCN(CCC2=CCc3c2cccc3-c2ccnn2C)CC1 [Compound 38, 1-methyl-4-(2-(7-(1-methyl-1H-pyrazol-5-yl)-1H-inden-3-yl)ethyl)piperazine maleate] | 30
24 | CN1CCN(CCC2=CCc3c2cccc3-c2ccsc2)CC1 [Compound 26, 1-methyl-4-(2-(7-(thiophen-3-yl)-1H-inden-3-yl)ethyl)piperazine maleate] | 7
25 | CN1CCN(CCC2=CCc3c2cccc3-c2ccccc2)CC1 [Compound 5, 1-methyl-4-(2-(7-phenyl-1H-inden-3-yl)ethyl)piperazine maleate] | 13
26 | Fc1ccc(-c2cccc3c2CC=C3CCN2CCOCC2)cc1 [Compound 13, 4-(2-(7-(4-fluorophenyl)-1H-inden-3-yl)ethyl)morpholine maleate] | 4
27 | CN1CCN(CCC2=CCc3cc(-c4ccnc(F)c4)ccc32)CC1 [Compound 41, 1-(2-(6-(2-fluoropyridin-4-yl)-1H-inden-3-yl)ethyl)-4-methylpiperazine maleate] | 120
28 | CN1CCN(CCC2=CCc3c2cccc3-c2ccc(Cl)c(Cl)c2)CC1 [Compound 20, 1-(2-(7-(3,4-dichlorophenyl)-1H-inden-3-yl)ethyl)-4-methylpiperazine maleate] | 25
29 | COc1ccc(-c2cccc3c2CC=C3CCN2CCN(C)CC2)cc1 [Compound 22, 1-(2-(7-(4-methoxyphenyl)-1H-inden-3-yl)ethyl)-4-methylpiperazine maleate] | 129
30 | C1=C(CCN2CCOCC2)c2cccc(-c3ccncc3)c2C1 [Compound 3, 4-(2-(7-(pyridin-4-yl)-1H-inden-3-yl)ethyl)morpholine maleate] | 47
31 | Clc1ccc(-c2cccc3c2CC=C3CCN2CCOCC2)cc1Cl [Compound 19, 4-(2-(7-(3,4-dichlorophenyl)-1H-inden-3-yl)ethyl)morpholine maleate] | 12
32 | CN1CCN(CCC2=CCc3c2cccc3-c2cncnc2)CC1 [Compound 29, 5-(3-(2-(4-methylpiperazin-1-yl)ethyl)-1H-inden-7-yl)pyrimidine maleate] | 168
33 | C1=C(CCN2CCCCC2)c2cccc(-c3ccccc3)c2C1 [Compound 8, 1-(2-(7-phenyl-1H-inden-3-yl)ethyl)piperidine maleate] | 7
34 | CN1CCCN(CCC2=CCc3c2cccc3-c2ccncc2)CC1 [Compound 31, 1-methyl-4-(2-(7-(pyridin-4-yl)-1H-inden-3-yl)ethyl)-1,4-diazepane maleate] | 29
35 | Fc1ccc(-c2cccc3c2CC=C3CCN2CCCCCC2)cc1 [Compound 2, 1-(2-(7-(4-fluorophenyl)-1H-inden-3-yl)ethyl)azepane hydrochloride] | 12
36 | CN1CCN(CCC2=CCc3c2cccc3-c2ccnc(F)c2)CC1 [Compound 33, 1-(2-(7-(2-fluoropyridin-4-yl)-1H-inden-3-yl)ethyl)-4-methylpiperazine maleate] | 29
37 | CN1CCN(CCC2=CCc3c2cccc3-c2ccncc2)CC1 [Compound 30, 1-methyl-4-(2-(7-(pyridin-4-yl)-1H-inden-3-yl)ethyl)piperazine maleate] | 26
38 | CN1CCN(CCC2=CCc3c2cccc3-c2ccncc2F)CC1 [Compound 4, 1-(2-(7-(3-fluoropyridin-4-yl)-1H-inden-3-yl)ethyl)-4-methylpiperazine maleate] | 24
